Data reported in article PMC8839448, “Novel Pyridothienopyrimidine Derivatives: Design, Synthesis and Biological Evaluation as Antimicrobial and Anticancer Agents” (Molecules, 2022).
In brackets after ≈: the same amount, converted by molar mass. Several values for one entry are separate records, joined by “and”; a condition that tells them apart may be missing. Equal values may be shown once. Read-outs that look alike come from different tables or passages of the source.

How the values were obtained:
[1] = test system: breast cancer (MCF-7) cells; experiment: Cytotoxicity, MTT assay; format: cell-based, human; conditions: read-out: Cytotoxic activity IC50 MCF7
[2] = test system: Saccharomycese cerevisiae; experiment: In vitro antifungal activity, MIC by broth dilution; format: cell-based; conditions: Saccharomyces cerevisiae, yeast, read-out: MIC S. cerevisiae
Candida tropicals 750 = experiment: as above; format: cell-based; conditions: yeast, read-out: MIC C. tropicals
Escherichia coli 8739 = experiment: In vitro antibacterial activity, MIC by broth dilution; format: cell-based; conditions: Gram −ve bacteria
Bacillus cereus 33018 = experiment: as above; format: cell-based; conditions: Gram +ve bacteria, read-out: MIC B. cereus
[3] = test system: Aspergillus niger EM77 (KF774181); experiment: In vitro antifungal activity, MIC by broth dilution; format: cell-based; conditions: fungi
Aspergillus flavus = experiment: as above; format: cell-based; conditions: fungi
[4] = test system: Staphylococcus aureus 25923; experiment: In vitro antibacterial activity, MIC by broth dilution; format: cell-based; conditions: Gram +ve bacteria, read-out: MIC S. aureus
Candida albicans 10231 = experiment: In vitro antifungal activity, MIC by broth dilution; format: cell-based; conditions: yeast, read-out: MIC C. albicans
[5] = test system: Salmonella typhimurium 14028; experiment: In vitro antibacterial activity, MIC by broth dilution; format: cell-based; conditions: Salmonella enterica, Gram −ve bacteria, read-out: MIC S. typhimurium
Bacillus subtilis 6633 = experiment: as above; format: cell-based; conditions: Gram +ve bacteria, read-out: MIC B. subtilis
[6] = test system: hepatocellular carcinoma (HepG2) cells; experiment: Cytotoxicity, MTT assay; format: cell-based; conditions: Homo sapiens, read-out: Cytotoxic activity IC50 HepG2
[7] = test system: all the tested yeasts and fungi strains; experiment: Antifungal MIC, range over the panel; format: cell-based
[8] = Cytotoxicity against normal cells, MTT assay; conditions: human, WISH normal cells
Description: The cytotoxicity was estimated as IC50 in μM for the tested compounds and the reference drug doxorubicin, and are listed in Table 3.

EGFR kinase = EGFR kinase (Homo sapiens, UniProt P00533); experiment: In vitro EGFR kinase inhibitory assay (Kinase-Glo MAX kit); conditions: for IC50: EGFR IC50, EGFR kinase assay kit, triplicate, ± SD
EGFR kinase, sequence (P00533 25-1210): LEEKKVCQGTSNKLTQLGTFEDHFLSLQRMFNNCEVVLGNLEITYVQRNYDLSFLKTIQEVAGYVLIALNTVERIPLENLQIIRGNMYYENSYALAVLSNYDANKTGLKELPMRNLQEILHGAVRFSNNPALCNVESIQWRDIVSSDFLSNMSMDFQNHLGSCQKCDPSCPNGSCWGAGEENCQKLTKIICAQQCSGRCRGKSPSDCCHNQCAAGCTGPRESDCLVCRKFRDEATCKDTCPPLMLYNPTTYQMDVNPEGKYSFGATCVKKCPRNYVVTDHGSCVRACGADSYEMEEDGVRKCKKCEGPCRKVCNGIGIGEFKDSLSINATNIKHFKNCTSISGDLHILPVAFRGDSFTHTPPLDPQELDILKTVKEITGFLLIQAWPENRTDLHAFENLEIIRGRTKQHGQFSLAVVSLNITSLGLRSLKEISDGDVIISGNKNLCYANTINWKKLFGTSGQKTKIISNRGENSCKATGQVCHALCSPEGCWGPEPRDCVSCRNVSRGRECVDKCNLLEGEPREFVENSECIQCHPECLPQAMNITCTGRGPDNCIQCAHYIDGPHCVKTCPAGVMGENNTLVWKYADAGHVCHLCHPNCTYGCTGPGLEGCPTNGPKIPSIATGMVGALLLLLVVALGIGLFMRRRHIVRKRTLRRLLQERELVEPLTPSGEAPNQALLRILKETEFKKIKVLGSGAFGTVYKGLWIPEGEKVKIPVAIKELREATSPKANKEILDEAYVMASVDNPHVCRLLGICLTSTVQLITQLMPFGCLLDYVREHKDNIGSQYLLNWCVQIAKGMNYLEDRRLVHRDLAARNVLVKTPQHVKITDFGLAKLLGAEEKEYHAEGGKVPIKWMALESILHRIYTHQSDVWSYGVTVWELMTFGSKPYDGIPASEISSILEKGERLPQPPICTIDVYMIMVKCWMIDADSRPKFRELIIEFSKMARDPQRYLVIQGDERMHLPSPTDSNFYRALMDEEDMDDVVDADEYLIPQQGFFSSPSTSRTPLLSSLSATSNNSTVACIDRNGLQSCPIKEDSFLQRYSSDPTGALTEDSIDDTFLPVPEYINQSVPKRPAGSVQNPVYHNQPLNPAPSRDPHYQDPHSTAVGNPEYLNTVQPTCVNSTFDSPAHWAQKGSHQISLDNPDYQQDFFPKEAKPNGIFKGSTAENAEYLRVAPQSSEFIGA
Protocol: The assay kit is designed to measure EGFR Kinase activity for screening applications using Kinase-Glo® MAX as a detection reagent. The luminescence was measured using a microplate reader (Infinite M200 microplate reader, Tecan, Männedorf, Switzerland) [54]. All assays were performed in triplicate and the relative inhibition (%) of inhibitors was then calculated via comparison with the control with no inhibitor.
In vitro EGFR kinase assay
The assay Kit is designed to measure EGFR Kinase
activity for screening applications using Kinase-Glo® MAX as a detection reagent
using Kinase-Glo® MAX as a detection reagent. Thaw 5x Kinase Buffer 1: ATP and
PTK substrate Poly (Glu:Tyr 4:1) (10 mg/ml) kinase was provided. Then the master
mixture was prepared: N wells x (6 μl 5x Kinase Buffer 1 + 1 µl ATP (500 µM) + 1
µl PTK substrate Poly (Glu:Tyr 4:1) (10 mg/ml)+ 17 μl water) and 25 μl of the
mixture was added to every well. The tested compounds were dissolved in DMSO,
well labeled as “Positive Control", 5 μl of the same solution of the reference drug
erlotinib and “Blank”, 5 μl of the same solution without inhibitor (Inhibitor buffer).
ml of 1x Kinase Buffer 1) was prepared by mixing 600 µl of 5x Kinase Buffer 1 with
The reaction initiated by adding 20 µl of diluted EGFR enzyme to the wells designated “Positive Control” and "Test Inhibitor Control". Incubate at 30°C for 40
minutes. Thaw Kinase-G lo Max reagent. After the 40 minute reaction, 50 µl of
Kinase-Glo Max reagent was added to each well. The plate was covered with
aluminum foil and incubate at room temperature for 15 minutes. Then the
luminescence was measured using the microplate reader (Infinite M200 microplate
reader, Tecan, Männedorf, Switzerland). All assays were performed in triplicate. The
relative inhibition (%) of inhibitors were then calculated compared to the control with
no inhibitor. Then the IC50 values and their standard deviation (SD) for the tested
compounds and the reference drug were determined in (nM).

Structure (SMILES)	MIC [2] [µg/mL]	MIC (Candida tropicals 750) [µg/mL]	MIC (Escherichia coli 8739) [µg/mL]	MIC (Bacillus cereus 33018) [µg/mL]	MIC [3] [µg/mL]	MIC (Aspergillus flavus) [µg/mL]	MIC [4] [µg/mL]	MIC (Candida albicans 10231) [µg/mL]	MIC [5] [µg/mL]	MIC (Bacillus subtilis 6633) [µg/mL]	melting point [°C]	MIC range against the tested yeasts and fungi strains [7] [µg/mL]	IC50 (EGFR kinase)	Fold more potent than erlotinib (EGFR inhibition) (EGFR kinase; relative to erlotinib) [fold]	IC50 ([1]; Homo sapiens, MCF7, MCF7 cells) [µM]	IC50 [6] [µM]	IC50 [8] [µM]	IC50 ([1]; MCF7 cells) [µM]
Cc1ccc(-c2cc(-c3ccccc3)nc3sc4c(Cl)nc(Cl)nc4c23)cc1 [Compound 3b, 2,4-Dichloro-7-phenyl-9-(p-tolyl)pyrido[3′,2′:4,5]thieno[3,2-d]pyrimidine]	64 (≈ 152 µM)	16 (≈ 37.9 µM)	16 (≈ 37.9 µM)	32 (≈ 75.8 µM)	16 (≈ 37.9 µM)	32 (≈ 75.8 µM)	32 (≈ 75.8 µM)	32 (≈ 75.8 µM)	32 (≈ 75.8 µM)	8 (≈ 18.9 µM)	220	–	–	–	24.7 ± 1.32	11.3 ± 0.65	–	–
Cc1ccc(-c2cc(-c3ccccc3)nc3sc4c(=O)[nH]c(CN5CCN(C)CC5)nc4c23)cc1 [Compound 5b, 2-((4-Methylpiperazin-1-yl)methyl)-7-phenyl-9-(p-tolyl)pyrido[3′,2′:4,5]thieno[3,2-d]pyrimidin-4(3H)-one]	16 (≈ 33.2 µM)	16 (≈ 33.2 µM)	32 (≈ 66.4 µM)	16 (≈ 33.2 µM)	64 (≈ 133 µM)	32 (≈ 66.4 µM)	8 (≈ 16.6 µM)	64 (≈ 133 µM)	32 (≈ 66.4 µM)	8 (≈ 16.6 µM)	260 to 261	–	–	–	21.1 ± 1.16	10.2 ± 0.29	–	–
Cc1ccc(-c2cc(-c3ccccc3)nc3sc4c(c23)NC2(CCCC2)NC4=O)cc1 [Compound 6b, 7′-Phenyl-9′-(p-tolyl)-1′H-spiro[cyclopentane-1,2′-pyrido[3′,2′:4,5]thieno[3,2-d]pyrimidin]-4′(3′H)-one]	8 (≈ 18.8 µM)	8 (≈ 18.8 µM)	8 (≈ 18.8 µM)	16 (≈ 37.6 µM)	8 (≈ 18.8 µM)	16 (≈ 37.6 µM)	4 (≈ 9.4 µM)	8 (≈ 18.8 µM)	16 (≈ 37.6 µM)	8 (≈ 18.8 µM)	210	4 to 16	0.05319 ± 0.00046 µM	–	9.89 ± 0.55	2.75 ± 0.13	395 ± 10.2	9.89 ± 0.55

Now from value to compound, other results behind:

MIC [2] [µg/mL]	MIC (Candida tropicals 750) [µg/mL]	MIC (Escherichia coli 8739) [µg/mL]	MIC (Bacillus cereus 33018) [µg/mL]	MIC [3] [µg/mL]	MIC (Aspergillus flavus) [µg/mL]	MIC [4] [µg/mL]	MIC (Candida albicans 10231) [µg/mL]	MIC [5] [µg/mL]	MIC (Bacillus subtilis 6633) [µg/mL]	melting point [°C]	MIC range against the tested yeasts and fungi strains [7] [µg/mL]	IC50 (EGFR kinase)	Fold more potent than erlotinib (EGFR inhibition) (EGFR kinase; relative to erlotinib) [fold]	Structure (SMILES)	IC50 ([1]; Homo sapiens, MCF7, MCF7 cells) [µM]	IC50 [6] [µM]	IC50 [8] [µM]	IC50 ([1]; MCF7 cells) [µM]
16 (≈ 64.7 µM)	128 (≈ 518 µM)	> 128	64 (≈ 259 µM)	> 128	> 128	> 128	128 (≈ 518 µM)	> 128	> 128	–	–	–	–	Cc1cc(C)c2c(n1)sc1c(=O)[nH]c(=O)[nH]c12 [Compound 2a, 7,9-Dimethylpyrido[3′,2′:4,5]thieno[3,2-d]pyrimidine-2,4(1H,3H)-dione]	64.3 ± 2.91	56.6 ± 3.64	–	–
32 (≈ 83 µM)	32 (≈ 83 µM)	128 (≈ 332 µM)	64 (≈ 166 µM)	32 (≈ 83 µM)	32 (≈ 83 µM)	64 (≈ 166 µM)	64 (≈ 166 µM)	64 (≈ 166 µM)	128 (≈ 332 µM)	316 to 317	–	–	–	Cc1ccc(-c2cc(-c3ccccc3)nc3sc4c(=O)[nH]c(=O)[nH]c4c23)cc1 [Compound 2b, 7-Phenyl-9-(p-tolyl)pyrido[3′,2′:4,5]thieno[3,2-d]pyrimidine-2,4(1H,3H)-dione]	42.4 ± 2.24	33.2 ± 1.79	–	–
8 (≈ 28.6 µM)	16 (≈ 57.2 µM)	8 (≈ 28.6 µM)	4 (≈ 14.3 µM)	8 (≈ 28.6 µM)	8 (≈ 28.6 µM)	4 (≈ 14.3 µM)	16 (≈ 57.2 µM)	16 (≈ 57.2 µM)	8 (≈ 28.6 µM)	330 to 331	4 to 16	0.027 µM and 0.0536 µM	1.5	Cc1cc(C)c2c(n1)sc1c(=O)[nH]c(CCl)nc12 [Compound 4a, 2-(Chloromethyl)-7,9-dimethylpyrido[3′,2′:4,5]thieno[3,2-d]pyrimidin-4(3H)-one]	15.4 ± 0.45	2.99 ± 0.15	460 ± 11.1	–
8 (≈ 19.1 µM)	16 (≈ 38.3 µM)	128 (≈ 306 µM)	16 (≈ 38.3 µM)	16 (≈ 38.3 µM)	16 (≈ 38.3 µM)	8 (≈ 19.1 µM)	8 (≈ 19.1 µM)	128 (≈ 306 µM)	128 (≈ 306 µM)	310	4 to 16	–	–	Cc1ccc(-c2cc(-c3ccccc3)nc3sc4c(=O)[nH]c(CCl)nc4c23)cc1 [Compound 4b, 2-(Chloromethyl)-7-phenyl-9-(p-tolyl)pyrido[3′,2′:4,5]thieno[3,2-d]pyrimidin-4(3H)-one]	43.3 ± 2.28	36.5 ± 1.82	–	–
